According to ChEMBL document CHEMBL1201862, “PubChem BioAssay data set” (2004):
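Grown in 96-well plates, cells were treated for 48 hours with each compound at five concentrations. Insufficient inhibition: endpoint recorded as highest concentration tested. Here, GI50 denotes the concentration required for 50% inhibition of growth.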 Calls of active or inactive are those of the source. Rule as the data show it: active = GI50 up to about 1.1 µM and inactive = higher. Where a SMILES comes first, the peptide text is derived from it. [ ]: non-standard residue; d: D form. The star is where a group is joined. ξ: configuration not given here. ξF = NC(Cc1ccccc1)C(=O)O; Cbz = O=C(OCc1ccccc1)*; Aib = CC(C)(N)C(=O)O

What was measured:
Test in all cases: inhibition of tumour cell growth, NCI panel, 48 h
COLO 205 = test system: COLO 205
UACC-62 = test system: UACC-62
MCF7 = test system: MCF7
SF-295 = test system: SF-295
Malme-3M = test system: Malme-3M
M14 = test system: M14
UACC-257 = test system: UACC-257
RPMI-8226 = test system: RPMI-8226
HCC 2998 = test system: HCC 2998
OVCAR-5 = test system: OVCAR-5
SK-OV-3 = test system: SK-OV-3
LOX IMVI = test system: LOX IMVI
K562 = test system: K562
U-251 = test system: U-251
SR = test system: SR
A549 = test system: A549
HCT-116 = test system: HCT-116
M19-MEL = test system: M19-MEL
KM-20L2 = test system: KM-20L2
NCI-H460 = test system: NCI-H460

| Structure (SMILES) | GI50 (COLO 205) | GI50 (UACC-62) | GI50 (MCF7) | GI50 (SF-295) | GI50 (Malme-3M) | GI50 (M14) | GI50 (UACC-257) | GI50 (RPMI-8226) | GI50 (HCC 2998) | GI50 (OVCAR-5) | GI50 (SK-OV-3) | GI50 (LOX IMVI) | GI50 (K562) | GI50 (U-251) | GI50 (SR) | GI50 (A549) | GI50 (HCT-116) | GI50 (M19-MEL) | GI50 (KM-20L2) | GI50 (NCI-H460) |
| --- | --- | --- | --- | --- | --- | --- | --- | --- | --- | --- | --- | --- | --- | --- | --- | --- | --- | --- | --- | --- |
| CCN(CC)C(=S)N/N=C(\C)c1cccc(C)n1 | < 0.01 µM (active) | 0.259 µM (active) | < 0.01 µM (active) | 0.315 µM (active) | 0.0365 µM (active) | < 0.041 µM (active) | < 0.01 µM (active) | < 0.01 µM (active) | 0.363 µM (active) | 2.08 µM (inactive) | 1.57 µM (inactive) | < 0.01 µM (active) | < 0.01 µM (active) | < 0.0431 µM (active) | < 0.0182 µM (active) | 0.259 µM (active) | < 0.01 µM (active) |  |  |  |
| COc1ccccc1C1C(C(=O)O)=C(CO)Oc2cc3c(cc21)OCO3 (stereo not drawn) | > 100 µM (inactive) | > 100 µM (inactive) |  | > 100 µM (inactive) | > 100 µM (inactive) | > 100 µM (inactive) |  | > 100 µM (inactive) |  |  | > 100 µM (inactive) | > 100 µM (inactive) | > 100 µM (inactive) | > 100 µM (inactive) |  |  |  | > 100 µM (inactive) | > 100 µM (inactive) | > 100 µM (inactive) |
| CN(C)C(=S)SCc1ccccc1 | > 100 µM (inactive) | > 100 µM (inactive) | > 100 µM (inactive) | > 100 µM (inactive) | 27.2 µM (inactive) | > 100 µM (inactive) | 79.8 µM (inactive) |  |  | > 100 µM (inactive) | > 100 µM (inactive) | > 100 µM (inactive) |  | > 100 µM (inactive) |  | > 100 µM (inactive) | 83.9 µM (inactive) |  |  | > 100 µM (inactive) |
| CC1C/C(=C\c2ccc(O)c(O)c2)C(=O)/C(=C/c2ccc(O)c(O)c2)C1 (stereo not drawn) | 16.9 µM (inactive) | 3.17 µM (inactive) | 3.11 µM (inactive) | 13.7 µM (inactive) | 10.4 µM (inactive) |  | 14.5 µM (inactive) |  | 18.2 µM (inactive) | 17.3 µM (inactive) | 18.1 µM (inactive) | 7.06 µM (inactive) | 5.83 µM (inactive) | 5.51 µM (inactive) | 3.82 µM (inactive) | 13.4 µM (inactive) | 6.67 µM (inactive) |  |  | 12.7 µM (inactive) |
| Cc1cc(Cl)ccc1/N=C1/NC(=O)C(CC(=O)Nc2cccc(C)c2C)S1 (stereo not drawn) | 24.3 µM (inactive) | 25.9 µM (inactive) |  | 28 µM (inactive) | 24.2 µM (inactive) | 18.1 µM (inactive) | 29.5 µM (inactive) | 19.7 µM (inactive) | 26.2 µM (inactive) | 31.7 µM (inactive) | 30.4 µM (inactive) | 22.3 µM (inactive) | 24.8 µM (inactive) | 26.2 µM (inactive) |  | 32 µM (inactive) |  | 35.1 µM (inactive) | 29.9 µM (inactive) | 31.3 µM (inactive) |
| Nc1nc(=S)[nH]c2nc3c(c(-c4ccccc4)c12)CCCC3 | > 100 µM (inactive) | > 100 µM (inactive) | > 100 µM (inactive) | > 100 µM (inactive) | > 100 µM (inactive) | > 100 µM (inactive) | > 10 µM (inactive) | > 100 µM (inactive) |  | > 100 µM (inactive) | > 100 µM (inactive) | > 100 µM (inactive) | > 100 µM (inactive) | > 100 µM (inactive) | > 100 µM (inactive) | > 100 µM (inactive) | > 100 µM (inactive) |  |  | > 100 µM (inactive) |
| COC1CCC(OS(C)(=O)=O)CO1 (stereo not drawn) | > 100 µM (inactive) | > 100 µM (inactive) |  | > 100 µM (inactive) | > 100 µM (inactive) | > 100 µM (inactive) | > 100 µM (inactive) | 26.2 µM (inactive) |  | 42.2 µM (inactive) | > 100 µM (inactive) |  | 69 µM (inactive) | > 100 µM (inactive) | 24.7 µM (inactive) |  | > 100 µM (inactive) | > 100 µM (inactive) | > 100 µM (inactive) | > 100 µM (inactive) |
| C=CC(Br)(CBr)CCC(Cl)C(C)C (stereo not drawn) | 3.38 µM (inactive) | 1.5 µM (inactive) | 1.39 µM (inactive) | 1.84 µM (inactive) | 1.58 µM (inactive) | 1.7 µM (inactive) | 2.25 µM (inactive) | 0.35 µM (active) | < 0.01 µM (active) | 2.44 µM (inactive) | 4.25 µM (inactive) | 1.15 µM (inactive) | 1.33 µM (inactive) | 1.66 µM (inactive) | 0.481 µM (active) | 4.69 µM (inactive) | 3.12 µM (inactive) |  |  | 1.88 µM (inactive) |
| CC(C)=CCC/C(C)=C/CC/C(C)=C/CC/C(=C/CC/C(C)=C\CC/C(C)=C/CC/C(C)=C/CC/C(C)=C/Cc1cc(O)ccc1O)CO | 2.28 µM (inactive) | 1.18 µM (inactive) | 2.55 µM (inactive) | 1.84 µM (inactive) | 2.7 µM (inactive) | 0.681 µM (active) | 3.07 µM (inactive) | 1.82 µM (inactive) | 9.93 µM (inactive) | 25.4 µM (inactive) | 10.9 µM (inactive) | 2.94 µM (inactive) | 17.7 µM (inactive) | 3.08 µM (inactive) | 3.26 µM (inactive) | 4.14 µM (inactive) | 2.84 µM (inactive) |  |  | 9.57 µM (inactive) |
| O=C(NCCCNC(=O)c1ccc2cc(O)c(O)cc2c1)c1ccc2cc(O)c(O)cc2c1 | 30.7 µM (inactive) | 20 µM (inactive) | 30.9 µM (inactive) |  | 28.6 µM (inactive) | 45.7 µM (inactive) | 36.4 µM (inactive) | 29.3 µM (inactive) | 18.6 µM (inactive) | 63 µM (inactive) |  | 24.2 µM (inactive) | 33.7 µM (inactive) | 21.9 µM (inactive) | 25.3 µM (inactive) | 69.8 µM (inactive) | 37.4 µM (inactive) |  |  | 34 µM (inactive) |
| O=c1c2cc(I)ccc2nc(-c2cccs2)n1Nc1ccccc1 | 1.64 µM (inactive) | 0.719 µM (active) |  | 0.383 µM (active) |  | 1.5 µM (inactive) |  | 4.61 µM (inactive) | 16 µM (inactive) | 30.5 µM (inactive) | 13.9 µM (inactive) | 0.117 µM (active) |  | 10.4 µM (inactive) | 12.1 µM (inactive) | 1.06 µM (active) | 12.2 µM (inactive) |  |  | 0.458 µM (active) |
| COC(=O)C(C)(C)NC(=O)C(Cc1ccccc1)NC(=O)C(C)(C)NC(=O)OCc1ccccc1 (stereo not drawn) (Cbz-[Aib]-[ξF]-[Aib]-OMe) | > 100 µM (inactive) | > 100 µM (inactive) | > 100 µM (inactive) | > 100 µM (inactive) | > 100 µM (inactive) | > 100 µM (inactive) | > 100 µM (inactive) | > 100 µM (inactive) | > 100 µM (inactive) | > 100 µM (inactive) | > 100 µM (inactive) | > 100 µM (inactive) | > 100 µM (inactive) | > 100 µM (inactive) |  | > 100 µM (inactive) | > 100 µM (inactive) |  |  | > 100 µM (inactive) |
